In patent US10251889B2, “Substituted pyrazolo[1,5-a]pyrimidine compounds as Trk kinase inhibitors” (Array BioPharma, Inc., priority 2009, dated 2019) one finds inhibition data, which are given here for 23 molecules.

For the experiment, the target named is Jak2 (human Jak2 kinase domain, amino acids 808-1132) (Homo sapiens (Human), UniProt O60674). In words: Jak2 inhibition assay (Omnia kinase assay). The format is biochemical. As to conditions: read-out: Jak2 Enzyme (% inhibition at 1000 nM), Table 1; 1000 nM test compound.
Chain of Jak2 (human Jak2 kinase domain, amino acids 808-1132) (O60674 808-1132): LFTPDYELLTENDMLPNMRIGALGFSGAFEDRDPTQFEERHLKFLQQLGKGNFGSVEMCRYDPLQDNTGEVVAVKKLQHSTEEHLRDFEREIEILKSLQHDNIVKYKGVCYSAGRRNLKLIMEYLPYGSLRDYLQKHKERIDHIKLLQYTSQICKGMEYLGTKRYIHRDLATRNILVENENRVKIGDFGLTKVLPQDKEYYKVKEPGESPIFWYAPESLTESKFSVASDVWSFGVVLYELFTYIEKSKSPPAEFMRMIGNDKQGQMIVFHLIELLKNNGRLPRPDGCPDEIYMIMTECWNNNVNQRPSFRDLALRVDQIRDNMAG
On to `CC1(NC(=O)c2cnn3ccc(N4CCC[C@@H]4c4cncc(F)c4)nc23)CCC1` [Example 102, (R)-5-(2-(5-fluoropyridin-3-yl)pyrrolidin-1-yl)-N-(1-methylcyclobutyl)pyrazolo[1,5-a]pyrimidine-3-carboxamide], for which the inhibition – broadly, the relative decrease from the control value, in per cent – at 1 µM stood at 17.3%.
The result for `O=C(N[C@H]1CCC[C@@H]1O)c1cnn2ccc(N3CCC[C@@H]3c3cncc(F)c3)nc12` [Example 103, 5-((R)-2-(5-fluoropyridin-3-yl)pyrrolidin-1-yl)-N-((1S,2S)-2-hydroxycyclopentyl)pyrazolo[1,5-a]pyrimidine-3-carboxamide] reads 4.5%; that for `O=C(N[C@H]1CCC[C@H]1O)c1cnn2ccc(N3CCC[C@@H]3c3cncc(F)c3)nc12` [Example 104, 5-((R)-2-(5-fluoropyridin-3-yl)pyrrolidin-1-yl)-N-((1S,2R)-2-hydroxycyclopentyl)pyrazolo[1,5-a]pyrimidine-3-carboxamide], 6.1%.
The same measure for `O=C(N[C@H]1CC[C@H](O)C1)c1cnn2ccc(N3CCC[C@@H]3c3cncc(F)c3)nc12` [Example 105, 5-((R)-2-(5-fluoropyridin-3-yl)pyrrolidin-1-yl)-N-((1S,3S)-3-hydroxycyclopentyl)pyrazolo[1,5-a]pyrimidine-3-carboxamide]: 18.7%; for `O=C(NC1(CO)CC1)c1cnn2ccc(N3CCC[C@@H]3c3cncc(F)c3)nc12` [Example 107, (R)-5-(2-(5-fluoropyridin-3-yl)pyrrolidin-1-yl)-N-(1-(hydroxymethyl)cyclopropyl)pyrazolo [1,5-a]pyrimidine-3-carboxamide]: 7.1%.
The same measure for `O=C(c1cnn2ccc(N3CCC[C@@H]3c3cncc(F)c3)nc12)N1CC(O)C1` [Example 108, (R)-(5-(2-(5-fluoropyridin-3-yl)pyrrolidin-1-yl)pyrazolo[1,5-a]pyrimidin-3-yl)(3-hydroxyazetid-1-yl)methanone]: 2.8%.
As to `C[C@H](O)CNC(=O)c1cnn2ccc(N3CCC[C@@H]3c3cncc(F)c3)nc12` [Example 109, 5-((R)-2-(5-fluoropyridin-3-yl)pyrrolidin-1-yl)-N-((S)-2-hydroxypropyl)pyrazolo[1,5-a]pyrimidine-3-carboxamide], the inhibition at 1 µM was -0.3%.
The same measure for `C[C@@H](O)CNC(=O)c1cnn2ccc(N3CCC[C@@H]3c3cncc(F)c3)nc12` [Example 110, 5-((R)-2-(5-fluoropyridin-3-yl)pyrrolidin-1-yl)-N-((R)-2-hydroxypropyl)pyrazolo[1,5-a]pyrimidine-3-carboxamide]: -0.5%; for `CC(C)(O)CNC(=O)c1cnn2ccc(N3CCC[C@@H]3c3cncc(F)c3)nc12` [Example 111, (R)-5-(2-(5-fluoropyridin-3-yl)pyrrolidin-1-yl)-N-(2-hydroxy-2-methylpropyl)pyrazolo[1,5-a]pyrimidine-3-carboxamide]: 0.1%; for `O=C(NCCO)c1cnn2ccc(N3CCC[C@@H]3c3cncc(F)c3)nc12` [Example 112, (R)-5-(2-(5-fluoropyridin-3-yl)pyrrolidin-1-yl)-N-(2-hydroxyethyl)pyrazolo[1,5-a]pyrimidine-3-carboxamide]: 3.2%.
The same measure for `CC(NC(=O)c1cnn2ccc(N3CCCC3c3cncc(F)c3)nc12)C1CC1` [Example 113, N-(1-cyclopropylethyl)-5-((R)-2-(5-fluoropyridin-3-yl)pyrrolidin-1-yl)pyrazolo[1,5-a]pyrimidine-3-carboxamide]: 44.6%.
The result for `C[C@H](CO)NC(=O)c1cnn2ccc(N3CCC[C@@H]3c3cncc(F)c3)nc12` [Example 115, 5-((R)-2-(5-fluoropyridin-3-yl)pyrrolidin-1-yl)-N-((R)-1-hydroxypropan-2-yl)pyrazolo[1,5-a]pyrimidine-3-carboxamide] reads 12.6%; that for `C[C@@H](CO)NC(=O)c1cnn2ccc(N3CCC[C@@H]3c3cncc(F)c3)nc12` [Example 116, 5-((R)-2-(5-fluoropyridin-3-yl)pyrrolidin-1-yl)-N-((S)-1-hydroxypropan-2-yl)pyrazolo[1,5-a]pyrimidine-3-carboxamide], 4.7%.
Turning to `NC(=O)c1cnn2ccc(N3CCC[C@@H]3c3cncc(F)c3)nc12` [Example 117, (R)-5-(2-(5-fluoropyridin-3-yl)pyrrolidin-1-yl)pyrazolo[1,5-a]pyrimidine-3-carboxamide], the inhibition at 1 µM is -1.4%.
The same measure for `COCC(C)NC(=O)c1cnn2ccc(N3CCCC3c3cncc(F)c3)nc12` [Example 118, 5-((R)-2-(5-fluoropyridin-3-yl)pyrrolidin-1-yl)-N-(1-methoxypropan-2-yl)pyrazolo[1,5-a]pyrimidine-3-carboxamide]: -4.5%; for `COCC(O)CNC(=O)c1cnn2ccc(N3CCCC3c3cncc(F)c3)nc12` [Example 119, 5-((R)-2-(5-fluoropyridin-3-yl)pyrrolidin-1-yl)-N-(2-hydroxy-3-methoxypropyl)pyrazolo[1,5-a]pyrimidine-3-carboxamide]: 1.7%.
As for `O=C(NC1CCC[C@@H]1O)c1cnn2ccc(N3CCCC3c3cncc(F)c3)nc12` (stereo partly drawn) [Example 120, 5-((R)-2-(5-fluoropyridin-3-yl)pyrrolidin-1-yl)-N-((trans)-2-hydroxycyclopentyl)pyrazolo[1,5-a]pyrimidine-3-carboxamide], the inhibition at 1 µM stood at 2.3%.
The same measure for `CC(C)[C@@H](CO)NC(=O)c1cnn2ccc(N3CCC[C@@H]3c3cncc(F)c3)nc12` [Example 121, 5-((R)-2-(5-fluoropyridin-3-yl)pyrrolidin-1-yl)-N-((S)-1-hydroxy-3-methylbutan-2-yl)pyrazolo[1,5-a]pyrimidine-3-carboxamide]: 3.7%; for `CC(C)[C@H](CO)NC(=O)c1cnn2ccc(N3CCC[C@@H]3c3cncc(F)c3)nc12` [Example 122, 5-((R)-2-(5-fluoropyridin-3-yl)pyrrolidin-1-yl)-N-((R)-1-hydroxy-3-methylbutan-2-yl)pyrazolo[1,5-a]pyrimidine-3-carboxamide]: 7.4%.
The same measure for `CC(C)(CO)CNC(=O)c1cnn2ccc(N3CCC[C@@H]3c3cncc(F)c3)nc12` [Example 125, (R)-5-(2-(5-fluoropyridin-3-yl)pyrrolidin-1-yl)-N-(3-hydroxy-2,2-dimethylpropyl)pyrazolo[1,5-a]pyrimidine-3-carboxamide]: 6.1%.
The result for `O=C(c1cnn2ccc(N3CCC[C@@H]3c3cncc(F)c3)nc12)N1CCC1` [Example 126, (R)-azetidin-1-yl(5-(2-(5-fluoropyridin-3-yl)pyrrolidin-1-yl)pyrazolo[1,5-a]pyrimidin-3-yl)methanone] reads -1%.
As for `O=C(c1cnn2ccc(N3CCC[C@@H]3c3cncc(F)c3)nc12)N1CC(CO)C1` [Example 127, (R)-(5-(2-(5-fluoropyridin-3-yl)pyrrolidin-1-yl)pyrazolo[1,5-a]pyrimidin-3-yl)(3-(hydroxymethyl)azetidin-1-yl)methanone], the inhibition at 1 µM stood at 0.2%.
The result for `O=C(c1cnn2ccc(N3CCC[C@@H]3c3cncc(F)c3)nc12)N1CC[C@H](O)C1` [Example 128, (5-((R)-2-(5-fluoropyridin-3-yl)pyrrolidin-1-yl)pyrazolo[1,5-a]pyrimidin-3-yl)((S)-3-hydroxypyrrolidin-1-yl)methanone] reads 1.2%.
